Assay results as given in article PMC5041982, “Small-molecule inhibition of STAT3 in radioresistant head and neck squamous cell carcinoma” (Oncotarget, 2016).
Where “and” joins values, the source holds several entries; their conditions need not be identical. Identical values can stand only once.

Experiments:
pSTAT1 (Tyr-701) = target: T1, pSTAT1 (Tyr-701) (Homo sapiens, UniProt P42224); assay: Phosphoflow, IFN-γ-induced pSTAT1 in Kasumi-1 cells; assay type: cell-based; conditions: Kasumi-1, IFN-γ 10 ng/ml 15 min; mean, n ≥ 2; read-out: Ligand Induced Phosphorylation (Phosphoflow) pSTAT1 (IFN-γ) IC50
T1 construct: endogenous in cells; host or cells: Kasumi-1
T1 sequence (P42224 1-750): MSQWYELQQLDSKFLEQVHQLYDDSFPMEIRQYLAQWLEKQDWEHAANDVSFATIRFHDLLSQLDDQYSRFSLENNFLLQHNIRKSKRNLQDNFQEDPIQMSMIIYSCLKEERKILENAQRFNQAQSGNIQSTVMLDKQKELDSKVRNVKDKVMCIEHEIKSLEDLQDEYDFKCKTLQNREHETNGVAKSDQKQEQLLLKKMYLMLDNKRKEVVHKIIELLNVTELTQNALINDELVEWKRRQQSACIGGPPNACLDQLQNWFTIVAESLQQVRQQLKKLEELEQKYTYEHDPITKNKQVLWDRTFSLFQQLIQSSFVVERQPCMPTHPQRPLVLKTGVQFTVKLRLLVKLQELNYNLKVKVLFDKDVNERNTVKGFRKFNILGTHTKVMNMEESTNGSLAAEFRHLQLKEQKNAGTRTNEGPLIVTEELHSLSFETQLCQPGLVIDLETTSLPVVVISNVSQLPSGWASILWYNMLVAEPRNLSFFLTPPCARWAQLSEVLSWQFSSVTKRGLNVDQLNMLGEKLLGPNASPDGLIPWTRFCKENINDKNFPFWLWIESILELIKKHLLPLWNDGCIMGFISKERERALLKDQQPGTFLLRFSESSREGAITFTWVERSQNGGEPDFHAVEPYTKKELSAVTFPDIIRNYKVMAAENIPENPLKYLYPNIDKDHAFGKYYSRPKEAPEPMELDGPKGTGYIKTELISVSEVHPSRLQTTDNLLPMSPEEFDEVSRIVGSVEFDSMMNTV
Procedure: (§1) The equilibrium binding levels obtained ± compound were normalized (resonance obtained in the presence of compound ÷ the resonance obtained in the absence of compound × 100) and plotted against Log [nM] […] B. Inhibition of ligand-stimulated STAT phosphorylation, measured by phosphoflow. Serum-starved (1 hour) Kasumi-1 cells, pre-incubated with compound/DMSO (1 hour), were treated with G-CSF (10 ng/ml, 15 min, left two panels) or IFN-γ (10ng/ml, 15 min, right panel). Cells were permeabilized and stained with Alexa647-pSTAT3, and PE-pSTAT1 antibodies and analyzed on BD LSR2. FCS files were uploaded to Cytobank for pSTAT3 and pSTAT1 quantitation. Histograms depicting pSTAT3 and pSTAT1 levels are shown. C. Mean fluorescence (pSTAT3/1) levels were plotted as function the Log [M] compound, and IC50 calculated using GraphPad. […] D. Inhibition of ligand-stimulated STAT phosphorylation, measured by Luminex. Serum-starved (1 hour) Kasumi-1 cells, pre-incubated with compound/DMSO (0/0.1/0.3/1/3/10/100 μM, 1 hour), were treated with G-CSF (10 ng/ml, 15′). Total protein extracts of cells were assayed for pSTAT3, pSTAT1, and GAPDH levels by Luminex. GAPDH-normalized pSTAT3 or pSTAT1 values were divided by this ratio for untreated cells and expressed in percentage. These values were plotted as a function of Log [M] compound, and IC50 values calculated using GraphPad.
(§2) Phosphoflow analysis was done as described in Xu et al. Briefly, Kasumi-1 cells, were serum-starved, pre-treated with compound or DMSO (1 hour, RT) and then stimulated with 20 μl of GCSF (10 ng/ml) for 15 minutes at 37°C. The cells were then permeabilized and stained with Alexa647-pSTAT3, Alexa488-pSTAT5 and PE-pSTAT1 antibodies and analyzed using the BD LSR2. FCS files were exported and uploaded to Cytobank for determination of phosphoproteins as earlier. Gating was done on live, single cells and then gates selected for positive ligand-activated pSTAT3 and pSTAT1. IC50 values were calculated using the GraphPad Prism.

pSTAT5 = assay: Phosphoflow, G-CSF-induced pSTAT5 in Kasumi-1 cells; assay type: cell-based; conditions: mean, n ≥ 2, read-out: Ligand Induced Phosphorylation (Phosphoflow) pSTAT5 (G-CSF) IC50
Procedure: as §2

STAT3 = STAT3 (Homo sapiens, UniProt P40763); assay: STAT3/pY-peptide binding surface plasmon resonance (SPR) assay; conditions: for IC50: STAT3 200 nM, EGFR pY1068 dodecapeptide, mean, n ≥ 2, read-out: pY-Peptide Binding (SPR) IC50; for Inhibition of STAT3 binding to pY-peptide compared with C188: SPR
Sequence of STAT3 (P40763 whole entry, species assumed): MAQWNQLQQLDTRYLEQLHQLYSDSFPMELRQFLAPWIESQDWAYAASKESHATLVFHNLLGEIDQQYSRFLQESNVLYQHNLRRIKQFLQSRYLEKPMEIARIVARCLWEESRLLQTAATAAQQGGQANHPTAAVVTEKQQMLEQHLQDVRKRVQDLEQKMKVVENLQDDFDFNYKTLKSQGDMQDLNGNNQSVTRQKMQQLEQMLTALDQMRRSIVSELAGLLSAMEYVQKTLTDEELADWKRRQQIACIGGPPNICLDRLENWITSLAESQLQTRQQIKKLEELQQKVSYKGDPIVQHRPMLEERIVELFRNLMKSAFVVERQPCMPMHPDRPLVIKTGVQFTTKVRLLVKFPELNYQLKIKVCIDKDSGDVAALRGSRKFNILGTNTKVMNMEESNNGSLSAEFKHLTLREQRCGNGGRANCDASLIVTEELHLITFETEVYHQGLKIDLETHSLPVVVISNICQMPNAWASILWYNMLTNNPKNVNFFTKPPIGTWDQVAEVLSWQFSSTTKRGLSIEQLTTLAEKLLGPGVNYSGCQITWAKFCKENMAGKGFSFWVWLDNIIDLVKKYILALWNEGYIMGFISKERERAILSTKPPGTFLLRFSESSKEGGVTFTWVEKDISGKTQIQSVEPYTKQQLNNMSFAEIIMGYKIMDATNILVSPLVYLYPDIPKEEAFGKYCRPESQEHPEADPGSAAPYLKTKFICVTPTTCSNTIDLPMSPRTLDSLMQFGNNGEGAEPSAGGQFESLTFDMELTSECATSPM
Procedure: The equilibrium binding levels obtained ± compound were normalized (resonance obtained in the presence of compound ÷ the resonance obtained in the absence of compound × 100) and plotted against Log [nM] […] B. Inhibition of ligand-stimulated STAT phosphorylation, measured by phosphoflow. Serum-starved (1 hour) Kasumi-1 cells, pre-incubated with compound/DMSO (1 hour), were treated with G-CSF (10 ng/ml, 15 min, left two panels) or IFN-γ (10ng/ml, 15 min, right panel). Cells were permeabilized and stained with Alexa647-pSTAT3, and PE-pSTAT1 antibodies and analyzed on BD LSR2. FCS files were uploaded to Cytobank for pSTAT3 and pSTAT1 quantitation. Histograms depicting pSTAT3 and pSTAT1 levels are shown. C. Mean fluorescence (pSTAT3/1) levels were plotted as function the Log [M] compound, and IC50 calculated using GraphPad. […] D. Inhibition of ligand-stimulated STAT phosphorylation, measured by Luminex. Serum-starved (1 hour) Kasumi-1 cells, pre-incubated with compound/DMSO (0/0.1/0.3/1/3/10/100 μM, 1 hour), were treated with G-CSF (10 ng/ml, 15′). Total protein extracts of cells were assayed for pSTAT3, pSTAT1, and GAPDH levels by Luminex. GAPDH-normalized pSTAT3 or pSTAT1 values were divided by this ratio for untreated cells and expressed in percentage. These values were plotted as a function of Log [M] compound, and IC50 values calculated using GraphPad. […]
3-D pharmacophore sorting used to evaluate the effect of each compound on STAT3 binding. Responses were normalized by dividing the […]
fingerprint screening were converted into 3-D structures compounds at 2 min and multiplying by 100. IC values […]
for analysis as described below. were determined by plotting % maximum response as a 3-D pharmacophore generation function of log concentration of compound and fitting the Each molecular chemical feature, including experimental points to a competitive binding model using hydrogen bond donor, hydrogen bond acceptor, positive a four parameter logistic equation: R = Rhigh − (Rhigh − R low)/ (1 + conc/A1)^A2, where R = percent response at and negative ionizable group, and hydrophobic region, inhibitor concentration, R = percent response with no was generated using the LigandScout application compound, R= percent response at highest compound high framework and projected into 3-D space. concentration, A2 = fitting parameter (slope) and A1 = low Feature-pairing IC50 (BIAevaluation Software version 4.1). The inhibition Each chemical feature was converted into distance constant (Ki) was derived from the Cheng-Prusoff bin and the complete set of distance bins used to construct equation Ki=IC50/(1+[C]/Kd) as used by Halling et al a cost matrix. The most favorable pairing based on cost where C stands for STAT3 concentration used in the SPR matrix was identified. assay and Kd denotes the dissociation constant for STAT3 3-D pharmacophore transformation binding to its phosphorylated EGFR ligand in the SPR […]
STAT3/pY-peptide binding assay and total protein extracted from cell pellets. […]
STAT3 binding assays were performed at 25 °C (Millipore, Danvers, MA) coupled to antibody against

pSTAT3 (Tyr-705) = target: T2, pSTAT3 (Tyr-705) (Homo sapiens, UniProt P40763); assay: Phosphoflow, G-CSF-induced STAT3 phosphorylation in Kasumi-1 cells; assay type: cell-based; conditions: Kasumi-1, G-CSF 10 ng/ml 15 min; mean, n ≥ 2; read-out: Ligand Induced Phosphorylation (Phosphoflow) pSTAT3 (GCSF) IC50
T2 construct: endogenous in cells; host or cells: Kasumi-1
T2 sequence (P40763 whole entry): as the sequence (P40763 whole entry, species assumed) above
Procedure: as §1, §2

Row | IC50 (pSTAT1 (Tyr-701)) | IC50 (pSTAT5) | IC50 (STAT3) | IC50 (pSTAT3 (Tyr-705)) | Inhibition of STAT3 binding to pY-peptide compared with C188 (STAT3) | Compound
1 | 17 µM | > 300 µM | 45 ± 8.5 µM | > 300 µM |  | CC1(C)CC(=O)c2c(oc3c2cc(NS(=O)(=O)c2ccc(Br)cc2)c2ccccc23)C1 [Compound C188-25]
2 | > 300 µM | > 300 µM | 70.5 ± 70 µM | > 300 µM |  | Cc1oc2c(cc(NS(=O)(=O)c3ccc(Cl)cc3)c3ccccc32)c1C(=O)OCc1ccccc1 [Compound C188-30]
3 | 47 µM | > 300 µM | 42 ± 7.1 µM | 13 µM |  | Cc1cc(C)c(S(=O)(=O)Nc2cc(C(C(=O)OC(C)C)C(=O)C(F)(F)F)c(O)c3ccccc23)cc1C (stereo not drawn) [Compound C188-31]
4 | 10 µM | > 300 µM | 71 ± 33.9 µM |  |  | CC(=O)Oc1c(Br)cc(N(C(C)=O)S(=O)(=O)c2ccc(C)cc2)c2ccccc12 [Compound C188-28]
5 | > 300 µM | > 300 µM | 8 ± 2.8 µM | > 300 µM | activity similar to C188 | Cc1cc(C)c(S(=O)(=O)Nc2cc(Cl)c(O)c3ccccc23)cc1C [Compound C188-10]
6 | 57 µM | 10 µM | 8.7 ± 9.1 µM | 40.3 ± 50.8 µM | activity similar to C188 | Cc1cc(C)c(C)c(S(=O)(=O)Nc2cc(SCC(=O)O)c(O)c3ccccc23)c1C [Compound C188-14]
7 | > 300 µM | > 300 µM | > 300 µM | > 300 µM |  | O=S(=O)(Nc1cccc2ccccc12)c1ccc(Cl)cc1 [Compound C188-24]
8 | 34.5 ± 10.6 µM | 21 µM | 17.3 ± 8.5 µM | 21.6 ± 11.1 µM |  | Cc1cc(C)c(S(=O)(=O)Nc2cc(C(C(=O)OC(C)C)C(=O)C(F)(F)F)c(O)c3ccccc23)c(C)c1 (stereo not drawn) [Compound C188-3]
9 | > 300 µM | > 300 µM | 4 µM |  | improved inhibition | O=S(=O)(Nc1cc(Sc2ccccc2)c(O)c2ccccc12)c1ccc(F)cc1 [Compound C188-16]
10 |  |  | 16 ± 15.6 µM | 23.5 ± 6.4 µM |  | CC(C)OC(=O)C(C(=O)C(F)(F)F)c1cc(NS(=O)(=O)c2ccccc2)c2ccccc2c1O (stereo not drawn) [Compound C188-6]
11 | > 300 µM | > 300 µM | > 300 µM |  |  | O=S(=O)(Nc1ccc(O)c2ccccc12)c1ccc(F)cc1 [Compound C188-27]
12 | > 300 µM | > 300 µM | > 300 µM | > 300 µM |  | CC(=O)Nc1ccc(S(=O)(=O)Nc2cccc3ccccc23)cc1 [Compound C188-23]
13 |  | > 300 µM | 11.5 ± 7.8 µM | 27 ± 1.4 µM |  | CC(C)OC(=O)C(C(=O)C(F)(F)F)c1cc(NS(=O)(=O)c2ccc(Cl)cc2)c2ccccc2c1O (stereo not drawn) [Compound C188-5]
14 | > 300 µM | > 300 µM | 280 ± 41 µM |  |  | CC(=O)Nc1c([N+](=O)[O-])cc(N(C(C)=O)S(=O)(=O)c2ccccc2)c2ccccc12 [Compound C188-13]
15 | > 300 µM | > 300 µM | 55 µM and 54.5 µM | > 300 µM |  | CC(=O)c1c(C)oc2c1cc(NS(=O)(=O)c1cc(C)ccc1C)c1ccccc12 [Compound C188-11]
16 | > 300 µM | > 300 µM | 25.5 ± 6.4 µM |  |  | CCOC(=O)c1c(C)oc2c1cc(NS(=O)(=O)c1ccc(C(C)(C)C)cc1)c1ccccc12 [Compound C188-35]
17 | > 300 µM | > 300 µM | 73 ± 17 µM | > 300 µM |  | CCc1ccc(S(=O)(=O)Nc2cc3c(C(=O)OCCOC)c(C)oc3c3ccccc23)cc1 [Compound C188-22]
18 | 9 µM | > 300 µM | 27 ± 25.5 µM | > 300 µM |  | CCOC(=O)c1c(C)oc2c1cc(NS(=O)(=O)c1cccc3cccnc13)c1ccccc12 [Compound C188-20]
19 | 29 µM |  | 21.5 ± 21.9 µM | 11 ± 1.4 µM |  | CC(C)OC(=O)C(C(=O)C(F)(F)F)c1cc(NS(=O)(=O)c2ccc(Br)cc2)c2ccccc2c1O (stereo not drawn) [Compound C188-4]
20 | > 300 µM |  | > 300 µM | 15 ± 17 µM |  | O=S(=O)(Nc1ccc(O)c2ccccc12)c1ccccc1 [Compound C188-21]
21 | > 300 µM |  | 18.5 ± 9.2 µM |  |  | COc1ccc(S(=O)(=O)Nc2cc(Sc3cccc4cccnc34)c(O)c3ccccc23)cc1 [Compound C188-38]
22 | > 300 µM |  | 3.5 ± 2.1 µM | > 300 µM | improved inhibition | O=S(=O)(Nc1cc(Sc2nc[nH]n2)c(O)c2ccccc12)c1ccc(F)cc1 [Compound C188-17]
23 | > 300 µM | > 300 µM | 27.5 ± 10.6 µM |  |  | COCc1oc2c(cc(NS(=O)(=O)c3ccc(F)cc3)c3ccccc32)c1C(=O)OC [Compound C188-29]
24 |  | > 300 µM | 89 ± 2.8 µM |  |  | Cc1ccc(S(=O)(=O)Nc2cc3c4c(oc3c3ccccc23)CCC(C(C)(C)C)C4)c(C)c1 (stereo not drawn) [Compound C188-26]
